Experimental data: ChEMBL document CHEMBL3046021, “Docking and QSAR studies of new 1,4-dihydropyridines containing 4(5)-chloro-2-methyl-5(4)-imidazolyl substituent” (Med Chem Res, 2012)

target: Voltage-dependent L-type calcium channel subunit alpha-1C (Cavia porcellus, UniProt O35505); experiment: Inhibition of L-type calcium channel in Cavia porcellus (guinea pig) ileal SMC assessed as inhibition of 80 mM KCl-induced current
Sequence (O35505 whole entry): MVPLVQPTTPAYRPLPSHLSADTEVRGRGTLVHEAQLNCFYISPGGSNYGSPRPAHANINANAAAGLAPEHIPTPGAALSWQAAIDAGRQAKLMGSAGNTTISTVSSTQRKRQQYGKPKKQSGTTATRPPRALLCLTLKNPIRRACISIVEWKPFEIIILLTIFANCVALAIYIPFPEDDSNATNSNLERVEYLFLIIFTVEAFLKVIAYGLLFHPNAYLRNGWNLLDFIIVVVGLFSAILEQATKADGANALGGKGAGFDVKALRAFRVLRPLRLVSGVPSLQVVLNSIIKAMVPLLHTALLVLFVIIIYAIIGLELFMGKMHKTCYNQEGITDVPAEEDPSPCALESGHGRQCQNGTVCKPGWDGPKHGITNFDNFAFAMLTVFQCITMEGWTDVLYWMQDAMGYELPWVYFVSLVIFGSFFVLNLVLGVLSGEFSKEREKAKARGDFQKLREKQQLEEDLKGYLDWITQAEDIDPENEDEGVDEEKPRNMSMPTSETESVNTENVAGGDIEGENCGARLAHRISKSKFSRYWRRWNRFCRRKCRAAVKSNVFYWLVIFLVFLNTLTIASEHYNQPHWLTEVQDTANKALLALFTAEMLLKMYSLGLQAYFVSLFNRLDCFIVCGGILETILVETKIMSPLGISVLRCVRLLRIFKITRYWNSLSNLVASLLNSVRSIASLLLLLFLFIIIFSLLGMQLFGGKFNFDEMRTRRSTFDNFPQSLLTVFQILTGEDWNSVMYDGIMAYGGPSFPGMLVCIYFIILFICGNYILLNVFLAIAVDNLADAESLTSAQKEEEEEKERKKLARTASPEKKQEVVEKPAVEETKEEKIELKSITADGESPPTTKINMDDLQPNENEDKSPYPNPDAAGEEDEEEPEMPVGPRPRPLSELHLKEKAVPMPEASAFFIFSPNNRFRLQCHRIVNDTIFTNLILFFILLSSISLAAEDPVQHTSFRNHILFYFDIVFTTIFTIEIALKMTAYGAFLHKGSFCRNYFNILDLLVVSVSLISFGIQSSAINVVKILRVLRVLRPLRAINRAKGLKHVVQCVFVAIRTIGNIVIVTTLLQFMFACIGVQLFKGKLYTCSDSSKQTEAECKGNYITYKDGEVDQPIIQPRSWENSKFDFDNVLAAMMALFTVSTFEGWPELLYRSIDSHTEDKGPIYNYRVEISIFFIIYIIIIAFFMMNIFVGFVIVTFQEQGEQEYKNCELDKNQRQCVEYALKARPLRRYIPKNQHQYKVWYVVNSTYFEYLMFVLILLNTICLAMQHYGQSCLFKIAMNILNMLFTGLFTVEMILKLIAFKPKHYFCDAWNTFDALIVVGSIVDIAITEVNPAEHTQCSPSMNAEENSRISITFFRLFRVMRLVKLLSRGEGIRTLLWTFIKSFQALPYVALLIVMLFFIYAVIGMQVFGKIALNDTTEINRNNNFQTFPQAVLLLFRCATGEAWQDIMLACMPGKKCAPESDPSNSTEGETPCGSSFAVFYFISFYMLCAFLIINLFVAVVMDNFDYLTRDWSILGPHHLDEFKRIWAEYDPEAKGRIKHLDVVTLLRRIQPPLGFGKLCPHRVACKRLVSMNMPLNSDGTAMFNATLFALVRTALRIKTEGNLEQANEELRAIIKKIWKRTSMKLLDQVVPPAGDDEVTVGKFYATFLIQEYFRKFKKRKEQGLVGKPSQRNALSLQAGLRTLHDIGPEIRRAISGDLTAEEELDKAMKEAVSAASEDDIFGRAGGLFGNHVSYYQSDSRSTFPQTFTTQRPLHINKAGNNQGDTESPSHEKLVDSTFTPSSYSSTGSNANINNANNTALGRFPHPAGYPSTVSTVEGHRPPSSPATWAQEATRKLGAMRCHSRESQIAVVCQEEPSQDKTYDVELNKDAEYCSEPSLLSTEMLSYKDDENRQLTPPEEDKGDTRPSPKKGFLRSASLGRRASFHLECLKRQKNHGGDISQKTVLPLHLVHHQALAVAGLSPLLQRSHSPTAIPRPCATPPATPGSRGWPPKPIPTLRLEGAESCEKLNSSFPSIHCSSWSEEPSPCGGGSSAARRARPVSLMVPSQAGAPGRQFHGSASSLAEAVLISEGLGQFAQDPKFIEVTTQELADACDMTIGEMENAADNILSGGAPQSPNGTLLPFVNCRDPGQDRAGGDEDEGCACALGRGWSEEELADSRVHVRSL

IC50 [nM] | Compound
437 | CCCOC(=O)C1=C(C)NC(C)=C(C(=O)OC)C1c1[nH]c(C)nc1Cl (stereo not drawn)
1860 | COC(=O)C1=C(C)NC(C)=C(C(=O)OC(C)(C)C)C1c1[nH]c(C)nc1Cl (stereo not drawn)
355 | COC(=O)C1=C(C)NC(C)=C(C(=O)OCC2CCCCC2)C1c1[nH]c(C)nc1Cl (stereo not drawn)
93.3 | COC(=O)C1=C(C)NC(C)=C(C(=O)OCc2ccccc2)C1c1[nH]c(C)nc1Cl (stereo not drawn)
79.4 | COC(=O)C1=C(C)NC(C)=C(C(=O)OCCc2ccccc2)C1c1[nH]c(C)nc1Cl (stereo not drawn)
407 | CCCOC(=O)C1=C(C)NC(C)=C(C(=O)OCC)C1c1[nH]c(C)nc1Cl (stereo not drawn)
1200 | COC(=O)C1=C(C)NC(C)=C(C(=O)OC)C1c1[nH]c(C)nc1Cl
437 | CCOC(=O)C1=C(C)NC(C)=C(C(=O)OCC)C1c1[nH]c(C)nc1Cl
1660 | CCOC(=O)C1=C(C)NC(C)=C(C(=O)OC(C)(C)C)C1c1[nH]c(C)nc1Cl (stereo not drawn)
513 | CCOC(=O)C1=C(C)NC(C)=C(C(=O)OCC2CCCCC2)C1c1[nH]c(C)nc1Cl (stereo not drawn)
41.7 | CC1=C(C(=O)OCc2ccccc2)C(c2nc(C)[nH]c2Cl)C(C(=O)OCc2ccccc2)=C(C)N1
0.182 | CC1=C(C(=O)OCCc2ccccc2)C(c2nc(C)[nH]c2Cl)C(C(=O)OCCc2ccccc2)=C(C)N1
1.74 | CC1=C(C(=O)OCCCc2ccccc2)C(c2nc(C)[nH]c2Cl)C(C(=O)OCCCc2ccccc2)=C(C)N1
91.2 | CCOC(=O)C1=C(C)NC(C)=C(C(=O)OCc2ccccc2)C1c1[nH]c(C)nc1Cl (stereo not drawn)
70.8 | CCOC(=O)C1=C(C)NC(C)=C(C(=O)OCCc2ccccc2)C1c1[nH]c(C)nc1Cl (stereo not drawn)
63.1 | CCCOC(=O)C1=C(C)NC(C)=C(C(=O)OCCC)C1c1[nH]c(C)nc1Cl
38 | CC1=C(C(=O)OC(C)C)C(c2[nH]c(C)nc2Cl)C(C(=O)OC(C)C)=C(C)N1
95.5 | CC1=C(C(=O)OCC(C)C)C(c2[nH]c(C)nc2Cl)C(C(=O)OCC(C)C)=C(C)N1
4070 | CC1=C(C(=O)OC(C)(C)C)C(c2[nH]c(C)nc2Cl)C(C(=O)OC(C)(C)C)=C(C)N1
97.7 | CC1=C(C(=O)OC2CCCC2)C(c2[nH]c(C)nc2Cl)C(C(=O)OC2CCCC2)=C(C)N1
955 | CC1=C(C(=O)OC2CCCCC2)C(c2[nH]c(C)nc2Cl)C(C(=O)OC2CCCCC2)=C(C)N1
631 | CC1=C(C(=O)OCC2CCCCC2)C(c2[nH]c(C)nc2Cl)C(C(=O)OCC2CCCCC2)=C(C)N1
661 | CCOC(=O)C1=C(C)NC(C)=C(C(=O)OC)C1c1[nH]c(C)nc1Cl (stereo not drawn)
